In one assay the target is T1, lysozyme (Gallus gallus, UniProt P00698).
T1 construct: purchased Sigma-Aldrich
Put plainly: Voltammetry, interaction with lysozyme. The conditions noted are these: 100 μM complex. The method, then: The pH of buffers was monitored on a Accumet XL50 pH meter. A GR-2000 electrical balance was used to weigh the various chemicals. Electrochemical measurements for cyclic voltammetry and square wave voltammetry were performed using Autolab instruments (Metrohm; Netherlands). […] The GCE was polished as a mirror-like surface with alumina slurry on a synthetic cloth before every electrochemical analysis. Square wave voltammetry and cyclic voltammetry were scanned from 0 to 1.3 V for the various analyses. Elemental analyses of gold(III) complexes (C1-C8) were performed on PerkinElmer Series 11 (CHNS/O), Analyzer 2400.
The electrochemical investigation of the interactions between the gold(III) complexes (C1-C8) and lysozyme, tryptophan and guanine was performed using the Autolab instrument described above, with a three-electrode system (CH Instruments): platinum wire counter electrode (CHI115), Ag/AgCl reference electrode (in 3 M KCl, CHI111) and glassy carbon working electrode (CHI112) inserted into a 5.0 ml glass cell. Solutions of 1 mM lysozyme, 5 mM tryptophan and 5 mM guanine were prepared in double distilled water, and the experiment was performed in 0.1 M phosphate buffer at pH 6.8.

Assay [1] has as its system DU145 prostate cancer cell line. Put plainly: Cytotoxicity assay (MTT, 72 h). It counts as cell-based, human. The conditions noted are these: DU145, MTT after 72 h, mean (SD); read-out: Half-maximal inhibitory concentration (IC50). The protocol: (§1) R-ME-180 and A2780cis cells were maintained in 1 μM cisplatin. Adipose-derived stromal cells were maintained in MSCGM BulletKit medium (Lonza). All cell lines were cultured at 37° C. in a 5% CO2, fully humidified atmosphere
(§2) Cell lines were seeded in 96-well flat-bottomed microplates in 100 μL culture medium at the following densities: DU145, PC3 and MCF-7 cells (2.5×10^3 cells/well); A2780, A2780cis, ME-180, R-ME-180 and A549 cells (4.0×10^3 cells/well); and MG-63 cells (2.0×10^3 cells/well). Cells were allowed to adhere for 24 h. Then the medium was replaced with fresh medium alone or with one of the gold(III) complexes at increasing concentrations from 0 to 100 μM. The reference drugs cisplatin (0-100 μM) and doxorubicin (0-1 μM) were included as positive controls for growth inhibition. After 72 h, cell viability was assayed using the MTT assay.
(§3) See Chou T. C.; Talalay P. Quantitative analysis of dose-effect relationships: the combined effects of multiple drugs or enzyme inhibitors. […] 22, 27-55, incorporated herein by reference in its entirety. IC50 values were reported as mean (SD). For drug-resistance cell lines, fold resistance (FR) was calculated as the ratio of the IC50 of the resistant cell line to the IC50 of the parental cell line.

The subject of assay [2] is PC3 prostate cancer cell line. Put plainly: Cytotoxicity assay (MTT, 72 h). It counts as cell-based, human. The following applies: PC3, MTT after 72 h, mean (SD); read-out: Half-maximal inhibitory concentration (IC50). The protocol: as §1, §2, §3
In assay [3] the test system is cervical cancer cell line ME-180. Briefly: Cytotoxicity assay (MTT, 72 h). In kind it is cell-based, human. The conditions noted are these: ME-180, MTT after 72 h, mean (SD). The protocol:
as §1, §2, §3

Assay [4] relates to cisplatin- and doxorubicin-resistant A2780cis clone. Put plainly: Cytotoxicity assay (MTT, 72 h). It counts as cell-based, human. The following applies: for IC50: A2780cis, MTT after 72 h, mean (SD); for FR (A2780cis/A2780), fold resistance: IC50 A2780cis / IC50 A2780. The method, then: as §1, §2, §3
Assay [5] has as its system ovarian cancer cell line A2780. Put plainly: Cytotoxicity assay (MTT, 72 h). It counts as cell-based, human. The following applies: A2780, MTT after 72 h, mean (SD). The protocol: as §1, §2, §3
Assay [6] relates to MCF-7 breast cancer cell line. Briefly: Cytotoxicity assay (MTT, 72 h). It counts as cell-based, human. The conditions noted are these: MCF-7, MTT after 72 h, mean (SD); read-out: Half-maximal inhibitory concentration (IC50). The protocol:
as §1, §2, §3

Assay [7] has as its system A549 lung cancer cell line. Put plainly: Cytotoxicity assay (MTT, 72 h). It counts as cell-based, human. The following applies: A549, MTT after 72 h, mean (SD); read-out: Half-maximal inhibitory concentration (IC50). The method, then: as §1, §2, §3
Assay [8] relates to MG-63 osteosarcoma cell line. Briefly: Cytotoxicity assay (MTT, 72 h). In kind it is cell-based, human. The following applies: MG63, MTT after 72 h, mean (SD); read-out: Half-maximal inhibitory concentration (IC50). The protocol: as §1, §2, §3
The subject of assay [9] is cisplatin-resistant R-ME-180 clone. Put plainly: Cytotoxicity assay (MTT, 72 h). The following applies: for FR (R-ME-180/ME-180), fold resistance: IC50 R-ME-180 / IC50 ME-180; for IC50: R-ME-180, MTT after 72 h, mean (SD). In kind it is cell-based, human. The method, then: as §1, §2, §3
Setting [10] is: CV, 0 μM lysozyme, 0.1 M phosphate buffer pH 6.8.

T1 sequence (P00698 19-147): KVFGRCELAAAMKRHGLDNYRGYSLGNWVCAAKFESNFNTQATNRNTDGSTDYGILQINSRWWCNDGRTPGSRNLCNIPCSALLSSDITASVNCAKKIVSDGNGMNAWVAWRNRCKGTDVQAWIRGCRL

For `Oc1ccc[n+]2c1-c1c(O)ccc[n+]1[Au-]2([Cl])[Cl].[Cl-]` [C1, [Au(BPYH)(Cl)2]Cl], the Voltammetry peak potential turned out to be 0.739 V on lysozyme (setting [10]); 0.8142 V on lysozyme (CV, 1 μM lysozyme, pH 6.8); 0.8319 V on lysozyme (CV, 4 μM lysozyme, pH 6.8); 0.8762 V on lysozyme (CV, 10 μM lysozyme, pH 6.8); 0.7934 V at lysozyme (SWV, 0 μM lysozyme, pH 6.8); 0.8034 V at lysozyme (SWV, 1 μM lysozyme, pH 6.8). Also, the Voltammetry peak potential was determined as 0.8387 V at lysozyme (SWV, 4 μM lysozyme, pH 6.8) and 0.8639 V on lysozyme (SWV, 10 μM lysozyme, pH 6.8). Also, the IC50 came to 39 µM in [1]; 28.3 µM in [2]; 70 µM in [3]; 24 µM in assay [4]; 23 µM in assay [5]; 59 µM in assay [6]. Further, the IC50 was more than 80 µM in assay [7], 43 µM in [8] and 72 µM in assay [9]. The “FR (A2780cis/A2780), fold resistance” value in [4] worked out at 1.0. Besides, the “FR (R-ME-180/ME-180), fold resistance” value in assay [9] amounted to 1.0.
For `CN(C)C1=[S+][Au-]2([S]1)[n+]1cccc(O)c1-c1c(O)ccc[n+]12.[Cl-].[Cl-]` [C2, [Au(BPYH)(DMDTC)]Cl2], the Voltammetry peak potential on lysozyme (setting [10]) is listed as 0.7921 V; at lysozyme (CV, 1 μM lysozyme, pH 6.8), 0.8009 V; on lysozyme (CV, 4 μM lysozyme, pH 6.8), 0.8186 V; at lysozyme (CV, 10 μM lysozyme, pH 6.8), 0.8319 V; at lysozyme (SWV, 0 μM lysozyme, pH 6.8), 0.7883 V; on lysozyme (SWV, 1 μM lysozyme, pH 6.8), 0.7934 V. The Voltammetry peak potential at lysozyme (SWV, 4 μM lysozyme, pH 6.8) stood at 0.8085 V; on lysozyme (SWV, 10 μM lysozyme, pH 6.8), 0.8135 V. Besides, the IC50 is 2.8 µM in assay [1]; 1.5 µM in assay [2]; 14 µM in [3]; 0.8 µM in assay [4]; 0.9 µM in assay [5]; 2.3 µM in assay [6]. Further, the IC50 in [7] turned out to be 6.1 µM; in assay [8], 3.8 µM; in assay [9] it was 21 µM. For the same compound, in assay [4], the “FR (A2780cis/A2780), fold resistance” value is 0.9. Also, in assay [9], the “FR (R-ME-180/ME-180), fold resistance” value is recorded as 1.5.
As for `[Cl-].[Cl-].[Cl][Au-]1([Cl])[n+]2ccc[n+]3c2-c2[n+]1ccc[n+]2[Au-]3([Cl])[Cl]` [C5, [Au2(BPM)(Cl)4]Cl2], the IC50 in assay [1] is more than 80 µM; in assay [2], more than 80 µM; in assay [3], more than 80 µM; in assay [4], 16.2 µM; in [5], 15.4 µM; in [6], 65 µM. For the same compound, the IC50 is more than 80 µM in assay [7], 26 µM in assay [8] and more than 80 µM in assay [9]. In [4], the “FR (A2780cis/A2780), fold resistance” value came out at 1.1.
As for `N.N.[Cl][Pt][Cl]` [Cisplatin, reference compound], the IC50 in assay [1] came out at 4.5 µM; in [2], 3.3 µM; in [3] it was 15 µM; in assay [4] it was 10.4 µM; in [5], 1.5 µM; in assay [9], 68 µM. Also, the “FR (A2780cis/A2780), fold resistance” value in [4] was 6.9. Besides, the “FR (R-ME-180/ME-180), fold resistance” value in [9] is 4.5.
`[Cl-].[Cl-].[Cl-].[Cl-].c1ccc(C[N+](Cc2ccccc2)=C2[S][Au-]3([S]2)[n+]2ccc[n+]4c2-c2[n+]3ccc[n+]2[Au-]42[S]C(=[N+](Cc3ccccc3)Cc3ccccc3)[S]2)cc1` [C8, [Au2(BPM)(DBDTC)2]Cl4]: the IC50 is 22.8 µM in [1]; 19.5 µM in [2]; 15 µM in [3]; 5.2 µM in assay [4]; 3.8 µM in assay [5]; 9.5 µM in assay [6]. For the same compound, the IC50 in assay [7] came out at 23 µM; in assay [8] it was 5.8 µM; in assay [9] it was 16 µM. Moreover, in assay [4], the “FR (A2780cis/A2780), fold resistance” value was 1.4. The “FR (R-ME-180/ME-180), fold resistance” value in [9] is 1.0.
`CCN(CC)C1=[S+][Au-]2([S]1)[n+]1cccc(O)c1-c1c(O)ccc[n+]12.[Cl-].[Cl-]` [C3, [Au(BPYH)(DEDTC)]Cl2]: the Voltammetry peak potential on lysozyme (setting [10]) was 0.7965 V; on lysozyme (CV, 1 μM lysozyme, pH 6.8), 0.8098 V; at lysozyme (CV, 4 μM lysozyme, pH 6.8), 0.8231 V; at lysozyme (CV, 10 μM lysozyme, pH 6.8), 0.8363 V; on lysozyme (SWV, 0 μM lysozyme, pH 6.8), 0.7934 V; on lysozyme (SWV, 1 μM lysozyme, pH 6.8), 0.8034 V. Moreover, the Voltammetry peak potential is 0.8135 V at lysozyme (SWV, 4 μM lysozyme, pH 6.8) and 0.8236 V at lysozyme (SWV, 10 μM lysozyme, pH 6.8). For the same compound, the IC50 in assay [1] came out at 3.5 µM; in assay [2] it was 1.3 µM; in [4], 0.4 µM; in assay [6], 1.7 µM; in assay [7], 3.8 µM; in assay [8], 1.2 µM. Also, the IC50 in assay [9] was 3.8 µM. The “FR (A2780cis/A2780), fold resistance” value in assay [4] was 1.1. Further, the “FR (R-ME-180/ME-180), fold resistance” value in assay [9] is 1.3.
`Oc1ccc[n+]2c1-c1c(O)ccc[n+]1[Au-]21[S]C(N(Cc2ccccc2)Cc2ccccc2)=[S+]1.[Cl-].[Cl-]` [C4, [Au(BPYH)(DBDTC)]Cl2]: the Voltammetry peak potential was determined as 0.7965 V on lysozyme (setting [10]); 0.8098 V at lysozyme (CV, 1 μM lysozyme, pH 6.8); 0.8186 V on lysozyme (CV, 4 μM lysozyme, pH 6.8); 0.8275 V at lysozyme (CV, 10 μM lysozyme, pH 6.8); 0.7883 V at lysozyme (SWV, 0 μM lysozyme, pH 6.8); 0.7934 V on lysozyme (SWV, 1 μM lysozyme, pH 6.8). Moreover, the Voltammetry peak potential on lysozyme (SWV, 4 μM lysozyme, pH 6.8) stood at 0.8085 V; at lysozyme (SWV, 10 μM lysozyme, pH 6.8), 0.8135 V. For the same compound, the IC50 amounted to 6.4 µM in assay [1]; 8.5 µM in assay [2]; 30 µM in assay [3]; 8.2 µM in [4]; 7.3 µM in assay [5]; 13 µM in [6]. Besides, the IC50 worked out at 25 µM in assay [7], 12.3 µM in [8] and 30 µM in assay [9]. In assay [4], the “FR (A2780cis/A2780), fold resistance” value was found to be 1.1. The “FR (R-ME-180/ME-180), fold resistance” value in assay [9] is reported as 1.0.
Regarding `COc1cccc2c1C(=O)c1c(O)c3c(c(O)c1C2=O)C[C@@](O)(C(=O)CO)C[C@@H]3O[C@H]1C[C@H](N)[C@H](O)[C@H](C)O1` [Doxorubicin, reference compound], the IC50 is 0.12 µM in [4] (Homo sapiens) and 0.02 µM in [5] (Homo sapiens). Further, in assay [4], the “FR (A2780cis/A2780), fold resistance” value is on record as 9.0.

The values are drawn from patent publication US12103939B2, “Solid pharmaceutical gold-based composition” (KING FAHD UNIVERSITY OF PETROLEUM AND MINERALS, priority 2019, dated 2024).
